Where a name gives a salt, the structure may show the parent alone.
system: MTT (mouse pheochromocytoma); assay: IC50 of cell viability (ATP content); conditions: (24 or 48 h)
Method in brief: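 MTT mouse pheochromocytoma cells (5 µl of 200,000 cells/ml per well, white 1536-well plates, DMEM with 5% FBS and 1% horse serum) were cultured overnight at 37°C, 5% CO2. They then received 23 nl library compound in DMSO by pintool at 8 concentrations (final 0.5 nM to 46 µM) for 24 or 48 hrs. CellTiter-Glo ATP luminescence was read after 15 minutes. Signals were normalised to positive-control (100% inhibition) and DMSO (0%) wells, and IC50 came from a four-parameter logistic fit.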

Row | SMILES | IC50 of cell viability [µM]
1 | CCN[C@@H]1C[C@H](C)[S+](=O)([O-])c2sc([S+](N)(=O)[O-])cc21 [Dorzolamide hydrochloride] | > 46
2 | CC(C)C(=O)Nc1ccc([N+](=O)[O-])c(C(F)(F)F)c1 [Flutamide] | > 46
3 | [Na+].CCN1CCN(C(=O)NC(C(=O)NC2C3SC\C(=C(/N3C2=O)C([O-])=O)CSC4=NN=N[N]4C)C5=CC=C(O)C=C5)C(=O)C1=O (stereo unspecified) [CEFOPERAZONE SODIUM] | > 46
4 | CCCCCCCCCCCCCC[N+](C)(C)Cc1ccccc1.O.[Cl-] [BENZALKONIUM CHLORIDE] | > 46
5 | Oc1ccc([C@H]2CNCc3c2ccc(O)c3O)cc1O [SELANDOPAM HYDROCHLORIDE HYDRATE (ZELANDOPAM)] | > 46
6 | OC1\C=C/C2[C@H]3CC4=C5C(=C(O)C=C4)OC1[C@@]25CCN3 (stereo partly specified) [N-Normorphine] | > 46
7 | CC(C)NCC(O)COc1ccccc1-n1cccc1 (stereo unspecified) [ISAMOLTANE] | > 46
8 | CC(C)(C)CC(C)(C)c1ccc(O)c(Cc2ccc(Cl)cc2Cl)c1 [CLOFOCTOL] | > 46
9 | [Cl][In]([Cl])[Cl] [Indium trichloride] | > 46
10 | O=Cc1ccco1 [Furfural] | > 46
11 | Nc1cc(C(Cl)=C(Cl)Cl)c([S+](N)(=O)[O-])cc1[S+](N)(=O)[O-] [Clorsulon] | > 46
12 | CCN(CC)CCNC(=O)c1cc(Cl)c(N)cc1OC [METOCLOPRAMIDE] | > 46
13 | CCOC(=O)O[C@]1(C(=O)OCCl)CC[C@H]2[C@@H]3CCC4=CC(=O)C=C[C@]4(C)[C@H]3[C@@H](O)C[C@@]21C [Loteprednol etabonate] | > 46
14 | CC(C)Cn1cnc2c(N)nc3ccccc3c21 [Imiquimod] | > 46
15 | CCOC(=O)C(CS)NCCN[C@@H](CS)C(=O)OCC (stereo partly specified) | > 46
16 | CO[C@]12C[C@@H](COC(=O)c3cncc(Br)c3)CN(C)[C@@H]1Cc1cn(C)c3cccc2c13 [NICERGOLINE] | > 46
17 | CCNCC.O=[S+]([O-])(O)c1cc(O)ccc1O [Ethamsylate] | > 46
18 | [N-]=[N+]=CC(=O)OCC(N)C(=O)O (stereo unspecified) [AZASERINE] | > 46
19 | O=[S+]1([O-])c2cccc3cccc(c23)N1CCCN1CCN(c2ccc(F)cc2)CC1 [FANANSERINUM] | > 46
20 | COC(c1ccccc1)(c1ccccc1)C(Oc1nc(C)cc(C)n1)C(=O)O (stereo unspecified) [AMBRISENTAN] | > 46
21 | CCC(C)(C)c1ccc(CC(C)CN2C[C@@H](C)O[C@@H](C)C2)cc1 (stereo partly specified) [AMOROLFINE HYDROCHLORIDE] | > 46

More lines, now with the values ahead:

Row | IC50 of cell viability [µM] | SMILES
22 | > 46 | CN1CCN(CC1)C/2=N/C3=CC=CC=C3NC4=C2C=C(C)S4 [olanzapine]
23 | > 46 | c1ccc(CNCCNCc2ccccc2)cc1 [N,N'-DIBENZYLETHYLENEDIAMMONIUM DI(ACETATE)]
24 | > 46 | CC1(C)C(C(=O)[O-])N2C(=O)CC2[S+]1(=O)[O-] (stereo unspecified) [Sulbactam]
25 | > 46 | O=c1oc2cc(O)ccc2s1 [TIOXOLONE]
26 | > 46 | O=C([O-])C1=NN(c2ccc(S(=O)(=O)[O-])cc2)C(=O)/C1=N\Nc1ccc(S(=O)(=O)[O-])cc1 [Tartrazine]
27 | > 46 | CS(=O)(=O)NC(=O)CCC/C=C\C[C@H]1C(=O)C[C@@H](O)[C@@H]1/C=C/[C@@H](O)COc1ccccc1 [Sulprostone]
28 | > 46 | COc1ccc(CCNC[C@@H](O)c2ccc(O)cc2)cc1OC [R(-)-Denopamine]
29 | > 46 | CC(C)Cc1ccc([C@@H](C)C(=O)NS(C)(=O)=O)cc1.NCCCC[C@H](N)C(=O)O [REPARIXIN]
30 | > 46 | CN(C)C(=S)SC(=S)N(C)C [TETRAMETHYLTHIURAM MONOSULFIDE]
31 | > 46 | O=C(CCNNC(=O)c1ccncc1)NCc1ccccc1 [Nialamide]

From the supplement of paper PMC3974653
